Data reported in PubChem BioAssay AID248 (DTP/NCI, 2004).
Inconclusive results and toxic doses are left out. Rule as the data show it: active = T/C of 150% or more; inactive = T/C below 125%.

Test system: L1210 leukemia ip in BDF1 mice, survival T/C
Assay: NCI In Vivo Anticancer Drug Screen. Data for tumor model L1210 Leukemia (intraperitoneal) in B6D2F1 (BDF1) mice
Conditions: endpoint: mean survival time, higher = longer survival
In short: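 Tumor cells were implanted, animals were treated, and survival was followed. The result divides the treated measurement by the vehicle-control measurement.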

[1] = dose: 100.0 mg/kg/injection, schedule: Q04DX002 (ip), vehicle: Klucel (hydroxypropylcellulose) (HPC)
[2] = dose: 200.0 mg/kg/injection, schedule: Q04DX002 (ip), vehicle: Klucel (hydroxypropylcellulose) (HPC)
[3] = dose: 400.0 mg/kg/injection, schedule: Q04DX002 (ip), vehicle: Klucel (hydroxypropylcellulose) (HPC)
[4] = dose: 100.0 mg/kg/injection, schedule: Q01DX001 (ip), vehicle: saline with Tween-80
[5] = dose: 100.0 mg/kg/injection, schedule: Q01DX001 (ip), vehicle: carboxymethylcellulose (CMC)
[6] = dose: 200.0 mg/kg/injection, schedule: Q01DX001 (ip), vehicle: carboxymethylcellulose (CMC)
[7] = dose: 400.0 mg/kg/injection, schedule: Q01DX001 (ip), vehicle: carboxymethylcellulose (CMC)
[8] = dose: 25.0 mg/kg/injection, schedule: Q01DX009 (ip), vehicle: water
[9] = dose: 75.0 mg/kg/injection, schedule: Q01DX009 (ip), vehicle: other
[10] = dose: 100.0 mg/kg/injection, schedule: Q04DX003 (ip), vehicle: saline
[11] = dose: 150.0 mg/kg/injection, schedule: Q01DX009 (ip), vehicle: other
[12] = dose: 200.0 mg/kg/injection, schedule: Q04DX003 (ip), vehicle: saline
[13] = dose: 100.0 mg/kg/injection, schedule: Q01DX001 (ip), vehicle: saline
[14] = dose: 200.0 mg/kg/injection, schedule: Q01DX001 (ip), vehicle: saline
[15] = dose: 400.0 mg/kg/injection, schedule: Q01DX001 (ip), vehicle: saline

Measured: T/C

Cc1cccc(C)c1OC(=O)Nc1cccc(Cl)c1
inactive: [1] 114 % of control | [2] 105 % of control | [3] 105 % of control

Nc1nc(=S)c2n[nH]nc2[nH]1
inactive: [4] 94 % of control

CSc1cc(C)c(OC(=O)Nc2c(C)cccc2C)c(CO)c1
inactive: dose: 100.0 mg/kg/injection, schedule: Q04DX003 (ip), vehicle: saline with Tween-80 86 % of control | dose: 200.0 mg/kg/injection, schedule: Q04DX003 (ip), vehicle: saline with Tween-80 90 % of control

CCOC(=O)Cc1c(C)[nH]c2c(C)ccc(C)c12
inactive: dose: 5.0 mg/kg/injection, schedule: Q01DX001 (ip), vehicle: other 94 % of control | dose: 10.0 mg/kg/injection, schedule: Q01DX001 (ip), vehicle: other 91 % of control | dose: 20.0 mg/kg/injection, schedule: Q01DX001 (ip), vehicle: other 105 % of control | dose: 40.0 mg/kg/injection, schedule: Q01DX001 (ip), vehicle: other 96 % of control | dose: 80.0 mg/kg/injection, schedule: Q01DX001 (ip), vehicle: other 100 % of control

COc1ccc2nonc2c1
inactive: dose: 100.0 mg/kg/injection, schedule: Q01DX001 (ip), vehicle: other 100 % of control | dose: 200.0 mg/kg/injection, schedule: Q01DX001 (ip), vehicle: other 110 % of control

Cn1c(=O)c2[nH]c(CCCc3nc4c([nH]3)c(=O)n(C)c(=O)n4C)nc2n(C)c1=O
inactive: dose: 25.0 mg/kg/injection, schedule: Q01DX001 (ip), vehicle: carboxymethylcellulose (CMC) 93 % of control | dose: 50.0 mg/kg/injection, schedule: Q01DX001 (ip), vehicle: carboxymethylcellulose (CMC) 105 % of control | [5] 98 % of control | [6] 101 % of control

CCOC(=O)NS(=O)(=O)Nc1ccccc1
inactive: [5] 100 % of control | [6] 109 % of control | [7] 95 % of control

c1ccc(-c2cccc[c]2[Hg][c]2ccccc2-c2ccccc2)cc1
inactive: [5] 96 % of control | [6] 93 % of control | [7] 93 % of control

CCCCCC(=O)N1CC(C)OC(C)C1 (stereo not drawn)
inactive: [1] 94 % of control | [2] 97 % of control | [3] 87 % of control

CC(=O)OC1CCC2(C)C(CCC3C(CCC(=O)O)C(C)(CC(C)C(=O)O)CCC32)C1 (stereo not drawn)
inactive: dose: 100.0 mg/kg/injection, schedule: Q04DX003 (sc), vehicle: steriod suspending solution 116 % of control | dose: 200.0 mg/kg/injection, schedule: Q04DX003 (sc), vehicle: steriod suspending solution 109 % of control | dose: 400.0 mg/kg/injection, schedule: Q04DX003 (sc), vehicle: steriod suspending solution 113 % of control

O=C(CCl)c1c(O)cc(O)cc1O
inactive: dose: 75.0 mg/kg/injection, schedule: Q01DX001 (ip), vehicle: other 106 % of control | dose: 150.0 mg/kg/injection, schedule: Q01DX001 (ip), vehicle: other 106 % of control | dose: 300.0 mg/kg/injection, schedule: Q01DX001 (ip), vehicle: other 92 % of control

O=C1c2ccccc2C(=O)N1CC[P+](c1ccccc1)(c1ccccc1)c1ccccc1
inactive: dose: 1.56 mg/kg/injection, schedule: Q01DX009 (ip), vehicle: water 106 % of control | dose: 3.12 mg/kg/injection, schedule: Q01DX009 (ip), vehicle: water 107 % of control | dose: 6.25 mg/kg/injection, schedule: Q01DX009 (ip), vehicle: water 108 % of control | dose: 12.5 mg/kg/injection, schedule: Q01DX009 (ip), vehicle: water 110 % of control | [8] 98 % of control

COc1ccc(C(C#N)CC(=O)c2ccc(OCc3ccccc3)c(OC)c2)cc1OC (stereo not drawn)
inactive: [9] 88 % of control | [10] 90 % of control | [11] 90 % of control | [12] 96 % of control | dose: 300.0 mg/kg/injection, schedule: Q01DX009 (ip), vehicle: other 95 % of control | dose: 400.0 mg/kg/injection, schedule: Q04DX003 (ip), vehicle: saline 94 % of control | dose: 600.0 mg/kg/injection, schedule: Q01DX009 (ip), vehicle: other 102 % of control

c1ccc(CNCc2cccnc2)cc1
inactive: [9] 91 % of control | [11] 98 % of control

O=[N+]([O-])c1ccc(N/N=C/C(c2ccccc2)c2ccsc2)c([N+](=O)[O-])c1 (stereo not drawn)
inactive: dose: 50.0 mg/kg/injection, schedule: Q04DX003 (ip), vehicle: saline 104 % of control | [4] 97 % of control | [10] 106 % of control | dose: 200.0 mg/kg/injection, schedule: Q01DX001 (ip), vehicle: saline with Tween-80 96 % of control | [12] 104 % of control

O=C(CCCC(=O)NNC(=O)NC(=O)C(Cl)(Cl)Cl)NNC(=O)NC(=O)C(Cl)(Cl)Cl
inactive: dose: 50.0 mg/kg/injection, schedule: Q01DX001 (ip), vehicle: saline 108 % of control | [13] 96 % of control | [14] 102 % of control | [15] 102 % of control

O=C1C(CCSc2ccccc2)C(=O)N(c2ccccc2)C1c1ccccc1 (stereo not drawn)
inactive: dose: 100.0 mg/kg/injection, schedule: Q01DX009 (ip), vehicle: Klucel (hydroxypropylcellulose) (HPC) 93 % of control | dose: 200.0 mg/kg/injection, schedule: Q01DX009 (ip), vehicle: Klucel (hydroxypropylcellulose) (HPC) 94 % of control | dose: 400.0 mg/kg/injection, schedule: Q01DX009 (ip), vehicle: Klucel (hydroxypropylcellulose) (HPC) 95 % of control

Nc1cc(Nc2ccc(Cl)[nH]c2=S)nc(N)n1
inactive: dose: 100.0 mg/kg/injection, schedule: Q01DX001 (ip), vehicle: Klucel (hydroxypropylcellulose) (HPC) 90 % of control | dose: 200.0 mg/kg/injection, schedule: Q01DX001 (ip), vehicle: Klucel (hydroxypropylcellulose) (HPC) 93 % of control | dose: 400.0 mg/kg/injection, schedule: Q01DX001 (ip), vehicle: Klucel (hydroxypropylcellulose) (HPC) 92 % of control

O=C(O)C1(C(=O)O)CCC2(CCCCC2)CC1
inactive: [8] 95 % of control | dose: 50.0 mg/kg/injection, schedule: Q01DX009 (ip), vehicle: water 101 % of control

OC(CC(O)(c1ccccc1)c1ccccc1)(c1ccccc1)c1ccccc1
inactive: dose: 9.5 mg/kg/injection, schedule: Q01DX001 (ip), vehicle: other 93 % of control | dose: 19.0 mg/kg/injection, schedule: Q01DX001 (ip), vehicle: other 96 % of control | dose: 38.0 mg/kg/injection, schedule: Q01DX001 (ip), vehicle: other 93 % of control

CN1CC(C(=O)NC(C)(C)C)CC(c2ccccc2)C1 (stereo not drawn)
inactive: dose: 6.25 mg/kg/injection, schedule: Q01DX009 (ip), vehicle: saline 91 % of control | dose: 12.5 mg/kg/injection, schedule: Q01DX009 (ip), vehicle: saline 86 % of control | dose: 25.0 mg/kg/injection, schedule: Q01DX009 (ip), vehicle: saline 86 % of control

CC(=O)CCCOc1ccc([N+](=O)[O-])cc1
inactive: [13] 98 % of control | [14] 98 % of control | [15] 101 % of control

O=CC1CC2c3ccccc3C1c1ccccc12 (stereo not drawn)
inactive: dose: 100.0 mg/kg/injection, schedule: Q01DX009 (ip), vehicle: gum acacia 106 % of control | dose: 100.0 mg/kg/injection, schedule: Q04DX003 (ip), vehicle: gum acacia 95 % of control | dose: 200.0 mg/kg/injection, schedule: Q01DX009 (ip), vehicle: gum acacia 95 % of control | dose: 200.0 mg/kg/injection, schedule: Q04DX003 (ip), vehicle: gum acacia 92 % of control | dose: 400.0 mg/kg/injection, schedule: Q01DX009 (ip), vehicle: gum acacia 102 % of control | dose: 400.0 mg/kg/injection, schedule: Q04DX003 (ip), vehicle: gum acacia 87 % of control
